How the values were obtained:
Format in all cases: physicochemical
[1] = Dynamic vapor sorption (DVS) hygroscopicity
Procedure: Dynamic vapor sorption (DVS) was used to investigate hygroscopicities of an active pharmaceutical ingredient in different crystal forms.
Determination method: • instrument: dynamic vapor sorption analyzer; temperature: 25°C; protective gas and flow rate: N2, 200 mL/min; • dm/dt: 0.002%/min; RH range: 0%RH-100%RH; cycle: 1 full cycle.

[2] = High-humidity test, related substances by HPLC; settings: 90%RH±5%RH; for Impurity content RRT0.55 / Impurity content RRT0.66 / Impurity content RRT0.71 / Impurity content RRT0.94 / Impurity content RRT1.02 / Impurity content RRT1.06 / Impurity content RRT1.08 / Impurity content RRT1.15 / Total impurities: open
From the text: An investigation method for the high-humidity test can be seen in Table 12 below.
Results of related substances in each crystal form under the high-humidity condition (90%RH±5%RH) can be seen in Table 16.
HPLC detection results of related substances under the high-humidity condition can be seen as follows: Table 16

[3] = Light exposure test, related substances by HPLC; settings: for Impurity content RRT0.55 / Impurity content RRT0.66 / Impurity content RRT0.71 / Impurity content RRT0.94 / Impurity content RRT1.02 / Impurity content RRT1.06 / Impurity content RRT1.08 / Impurity content RRT1.15 / Total impurities: 4500lx±500lx, open
From the text: An investigation method for the light exposure test can be seen in Table 13 below.
Results of related substances in each crystal form under the light exposure condition (4500lx±500lx) can be seen in Table 17.
HPLC detection results of related substances under the light exposure condition can be seen as follows: Table 17

[4] = Accelerated test, related substances by HPLC; settings: 40°C±2°C, 75%RH±5%RH; for Impurity content RRT0.55 / Impurity content RRT0.66 / Impurity content RRT0.71 / Impurity content RRT0.94 / Impurity content RRT1.02 / Impurity content RRT1.06 / Impurity content RRT1.08 / Impurity content RRT1.15 / Total impurities: open
Procedure: An investigation method for the accelerated test can be seen in Table 14 below.
Change results of related substances in each crystal form under the accelerated condition (40°C±2°C, 75%RH±5%RH) can be seen in Table 18.
HPLC detection results of related substances under the accelerated condition can be seen as follows: Table 18

[5] = Flowability test (angle of repose)
Procedure: A flowability determination method was as follows: an angle of repose was determined by using a device composed of 2 to 3 funnels connected in series in a staggered manner, and drug powder was slowly and uniformly passed through the funnels onto a stationary base with a diameter d, so as to form a symmetric powder pile with a single layer of powder at the bottom. During the formation of the powder pile, a height of the funnels was maintained within 2-4 cm from a top of the powder pile, a height h of the cone was determined, and the angle of repose was calculated as tanθ=h/(d/2).

## C[C@@H](Nc1ccn2ncc(C3=NOC(C)(C)N3)c2n1)c1cc(F)cc(F)c1F [crystal form A]
[1]
  Hygroscopicity (conclusion): did not have hygroscopicity under conventional conditions
[1]; at 0% humidity, 25°C
  DVS weight loss: 3-4%
[1]; humidity 90% or more
  DVS hygroscopicity: obvious hygroscopicity
[1]; humidity increased from 0% to 20%
  DVS weight gain: significant weight gain
[1]; humidity increased from 20% to 80%
  DVS hygroscopic weight gain: almost no hygroscopic weight gain
[2]; 32 days
  Increase of impurity RRT1.02 content: no essential changes
  Increase of impurity RRT1.08 content: no essential change
  Increase of total impurities: 0.03%
  Impurity content RRT0.55: 0.03%
  Impurity content RRT0.66: 0.18%
  Impurity content RRT0.71: 0.16%
  Impurity content RRT0.94: 0.05%
  Impurity content RRT1.02: 0.26%
  Impurity content RRT1.06: 0.06%
  Impurity content RRT1.08: 0.18%
  Impurity content RRT1.15: 0.05%
  Total impurities: 0.98%
[2]; 0 day
  Impurity content RRT0.55: 0.03%
  Impurity content RRT0.66: 0.18%
  Impurity content RRT0.71: 0.15%
  Impurity content RRT0.94: 0.04%
  Impurity content RRT1.02: 0.28%
  Impurity content RRT1.06: 0.07%
  Impurity content RRT1.08: 0.16%
  Impurity content RRT1.15: 0.03%
  Total impurities: 0.95%
[2]; 5 days
  Impurity content RRT0.55: 0.03%
  Impurity content RRT0.66: 0.20%
  Impurity content RRT0.71: 0.16%
  Impurity content RRT0.94: 0.03%
  Impurity content RRT1.02: 0.31%
  Impurity content RRT1.06: 0.09%
  Impurity content RRT1.08: 0.21%
  Impurity content RRT1.15: 0.04%
  Total impurities: 1.07%
[2]; 11 days
  Impurity content RRT0.55: 0.03%
  Impurity content RRT0.66: 0.20%
  Impurity content RRT0.71: 0.16%
  Impurity content RRT0.94: 0.03%
  Impurity content RRT1.02: 0.30%
  Impurity content RRT1.06: 0.08%
  Impurity content RRT1.08: 0.21%
  Impurity content RRT1.15: 0.03%
  Total impurities: 1.05%
[3]; 4500 lx±500 lx, 32 days
  Increase of impurity RRT0.66 content: 0.09%
  Increase of impurity RRT0.71 content: not increased
  Increase of impurity RRT1.02 content: not increased
  Increase of impurity RRT1.08 content: 0.09%
  Increase of total impurities: 0.13%
[3]; 0 day
  Impurity content RRT0.55: 0.03%
  Impurity content RRT0.66: 0.18%
  Impurity content RRT0.71: 0.15%
  Impurity content RRT0.94: 0.04%
  Impurity content RRT1.02: 0.28%
  Impurity content RRT1.06: 0.07%
  Impurity content RRT1.08: 0.16%
  Impurity content RRT1.15: 0.03%
  Total impurities: 0.95%
[3]; 5 days
  Impurity content RRT0.55: 0.03%
  Impurity content RRT0.66: 0.21%
  Impurity content RRT0.71: 0.14%
  Impurity content RRT0.94: 0.04%
  Impurity content RRT1.02: 0.30%
  Impurity content RRT1.06: 0.08%
  Impurity content RRT1.08: 0.20%
  Impurity content RRT1.15: 0.04%
  Total impurities: 1.03%
[3]; 11 days
  Impurity content RRT0.55: 0.03%
  Impurity content RRT0.66: 0.22%
  Impurity content RRT0.71: 0.15%
  Impurity content RRT0.94: 0.03%
  Impurity content RRT1.02: 0.31%
  Impurity content RRT1.06: 0.07%
  Impurity content RRT1.08: 0.22%
  Impurity content RRT1.15: 0.04%
  Total impurities: 1.08%
[3]; 32 days
  Impurity content RRT0.55: 0.03%
  Impurity content RRT0.66: 0.27%
  Impurity content RRT0.71: 0.10%
  Impurity content RRT0.94: 0.07%
  Impurity content RRT1.02: 0.28%
  Impurity content RRT1.06: 0.06%
  Impurity content RRT1.08: 0.25%
  Impurity content RRT1.15: 0.02%
  Total impurities: 1.08%
[4]; 32 days
  Increase of impurity RRT1.08 content: 0.04%
  Impurity content RRT0.55: 0.04%
  Impurity content RRT0.66: 0.20%
  Impurity content RRT0.71: 0.16%
  Impurity content RRT0.94: 0.04%
  Impurity content RRT1.02: 0.27%
  Impurity content RRT1.06: 0.07%
  Impurity content RRT1.08: 0.20%
  Impurity content RRT1.15: 0.06%
  Total impurities: 1.03%
[4]; 0 day
  Impurity content RRT0.55: 0.03%
  Impurity content RRT0.66: 0.18%
  Impurity content RRT0.71: 0.15%
  Impurity content RRT0.94: 0.04%
  Impurity content RRT1.02: 0.28%
  Impurity content RRT1.06: 0.07%
  Impurity content RRT1.08: 0.16%
  Impurity content RRT1.15: 0.03%
  Total impurities: 0.95%
[4]; 5 days
  Impurity content RRT0.55: 0.03%
  Impurity content RRT0.66: 0.20%
  Impurity content RRT0.71: 0.16%
  Impurity content RRT0.94: 0.04%
  Impurity content RRT1.02: 0.30%
  Impurity content RRT1.06: 0.08%
  Impurity content RRT1.08: 0.18%
  Impurity content RRT1.15: 0.03%
  Total impurities: 1.02%
[4]; 11 days
  Impurity content RRT0.55: 0.04%
  Impurity content RRT0.66: 0.20%
  Impurity content RRT0.71: 0.17%
  Impurity content RRT0.94: 0.03%
  Impurity content RRT1.02: 0.33%
  Impurity content RRT1.06: 0.09%
  Impurity content RRT1.08: 0.25%
  Impurity content RRT1.15: 0.04%
  Total impurities: 1.14%
[5]
  angle of repose: approximately 32.7 °
